Data taken from patent publication US20220087987A1, “A METHOD FOR TREATING SWI/SNF COMPLEX-DEFICIENT CANCERS COMPRISING GLUTATHIONE (GSH) METABOLIC PATHWAY INHIBITOR” (National Cancer Center, priority 2018, published 2022).
Where two headings read alike, the source gives them in different places. Square brackets hold non-standard residues; d marks the D form. Peptide text beside a SMILES is read from it. * marks the point of attachment. Sta = CC(C)C[C@H](N)[C@@H](O)CC(=O)O; Isovaleryl = CC(C)CC(=O)*

Columns and labels:
[1] = test system: ARID1A-KO HCT116 cells; experiment: Drug library screen, cell viability (CellTiter-Glo); type: cell-based, human; design: key to Cell viability, KO: % viability relative to DMSO solvent-treated cells
Protocol: (§1) ARID1A-WT and ARID1A-KO HCT116 cancer cells were used for screening assays. […] Cell viability was assessed after 5 days using the CellTiter-Glo Luminescent Cell Viability Assay (Promega). Luminescence was measured using an Envision Multi-label plate reader (PerkinElmer). The luminescence reading was used to determine the cell viability relative to that of cells treated with solvent (DMSO). Candidate compounds were considered if viability of ARID1A-KO cells was less than […] was more than 80%.

[2] = test system: ARID1A-WT HCT116 cells; experiment: as above; type: cell-based, human; design: key to Cell viability, WT: % viability relative to DMSO solvent-treated cells
Protocol: as §1

[3] = HCT116 ARID1A-KO, 10 μM for 5 days, relative to cells treated with solvent (DMSO)
[4] = HCT116 ARID1A-WT, 10 μM for 5 days, relative to cells treated with solvent (DMSO)

Structure (SMILES) | Cell viability, KO [1, 3] | Cell viability, WT [2, 4] | Cell viability, KO [1] | Cell viability, WT [2]
CCCC[C@@H](C)[C@@H](OC(=O)C[C@@H](CC(=O)O)C(=O)O)[C@H](C[C@@H](C)C[C@H](O)CCCC[C@@H](O)C[C@H](O)[C@H](C)N)OC(=O)C[C@@H](CC(=O)O)C(=O)O [Fumonisin B1] | 83.33 | 87.23 |  | 
COc1ccc2c(c1)c1c3c(c4c5ccccc5n(C)c4c1n2CC(O)CN(C)C)C(=O)NC3=O (centres unmarked) [Go7874] | 4.256 | 3.01 |  | 
CC1CNCCN1S(=O)(=O)c1cccc2cnccc12 (centres unmarked) [H-7] | 70.52 | 116.4721 |  | 
O=S(=O)(NCCNC/C=C/c1ccc(Br)cc1)c1cccc2cnccc12 [H-89] | 119.4541 | 78.81 |  | 
CCOC(=O)C1=C(N)Oc2ccc(Br)cc2C1C(C#N)C(=O)OCC (centres unmarked) [HA 14-1] | 119.1814 | 114.2556 |  | 
CCCCN1C(=O)C2Cc3c([nH]c4ccccc34)C(c3cccc(O)c3)N2C1=O (centres unmarked) [HR22C16] | 17.39 | 12.52 |  | 
CC(C)Cn1c(=O)n(C)c(=O)c2[nH]cnc21 [IBMX] | 114.2526 | 159.7152 |  | 
O=Cc1ccc(N2CCOCC2)cc1O [IC60211] | 174.6736 | 131.0236 |  | 
NC(=O)Nc1sc(-c2ccccc2)cc1C(N)=O [IKK-2 inhibitor VI] | 22.26 | 19.28 |  | 
O=C(Nc1nc2ccccc2n1CCN1CCOCC1)c1cccc([N+](=O)[O-])c1 [IRAK-¼ inhibitor] | 160.7174 | 142.234 |  | 
Cc1ccc2nc(NC(=O)CSc3nc4c(c(=O)n3-c3ccccc3)SCC4)sc2c1 [IWP-2] | 90.8 | 78.56 |  | 
O=C(Nc1cccc2cccnc12)c1ccc(N2C(=O)[C@@H]3[C@H](C2=O)[C@@H]2C=C[C@H]3C2)cc1 [IWR-1-endo] | 75.98 | 76.34 |  | 
CCOc1nc(NC(=O)Cc2cc(OC)ccc2OC)cc(N)c1C#N [JNK inhibitor VIII] | 189.4425 | 127.134 |  | 
COc1ccc(S(=O)(=O)N(CCO)c2ccccc2CN(C)C/C=C/c2ccc(Cl)cc2)cc1 [KN93] | 23.47 | 20.89 |  | 
CN([C@@H](Cc1ccc(OS(=O)(=O)c2cccc3cnccc23)cc1)C(=O)N1CCN(c2ccccc2)CC1)S(=O)(=O)c1cccc2cnccc12 [KN-62] |  |  | 131.0212 | 113.3229
COC(=O)[C@@]1(OC)C[C@H]2O[C@]1(C)n1c3ccccc3c3c4c(c5c6ccccc6n2c5c31)C(=O)N(C)C4 [KT 5823] | 111.294 | 102.1181 |  | 
CNC(=N)NCCC[C@H](N)C(=O)O [L-NMMA] | 116.4094 | 167.9828 |  | 
c1ccc2c(-c3cnn4cc(-c5ccc(N6CCNCC6)cc5)cnc34)ccnc2c1 [LDN193189] | 2.712 | 2.832 |  | 
C/C(O)=C(\C#N)C(=O)Nc1cc(Br)ccc1Br [LFM-A13] | 106.7176 | 93.88 |  | 
O=c1cc(N2CCOCC2)oc2c(-c3ccccc3)cccc12 [LY294002] | 119.3969 | 127.2893 |  | 

Structure (SMILES) | Cell viability, KO [1, 3] | Cell viability, WT [2, 4] | Cell viability, KO [1] | Cell viability, WT [2]
Cc1cccc(-c2nn3c(c2-c2ccnc4ccc(C(N)=O)cc24)CCC3)n1 [LY2157299] | 113.5072 | 91.31 |  | 
O=C1C(Nc2ccccc2)=CC(=O)c2ncccc21 [LY 83583] | 4.788 | 4.357 |  | 
CCC(=C/[C@H](C)C/C=C/C(C)=C/[C@@H](C)C(=O)[C@@H](C)[C@H](O)[C@@H](C)C/C(C)=C/C(=O)O)/C=C/[C@@H]1OC(=O)C=C[C@@H]1C [Leptomycin B*, Leptomycin B] | 4.969 | 5.031 |  | 
CC(C)c1ccc2c(c1)c(SC(C)(C)C)c(CC(C)(C)C(=O)O)n2Cc1ccc(Cl)cc1 [MK 886] | 112.1339 | 116.7328 |  | 
O=S(=O)(c1cccc2c(I)cccc12)N1CCCNCC1 [ML-7] | 78.88 | 76.67 |  | 
O=C(Nc1cccc(NC(=O)c2cccc(O)c2O)c1)c1cccc(O)c1O [MST-312] | 7.703 | 7.363 |  | 
CCCC[C@@H](C)/C=C(C)/C=C(\C)C(=O)NC1=C[C@@](O)(/C=C/C=C/C=C/C(=O)NC2=C(O)CCC2=O)[C@@H]2O[C@@H]2C1=O [Manumycin A] | 52.57 | 61.22 |  | 
CCNCCCNCCCCNCCCNCC [N1,N12-Diethylspermine (BESpm), N1,N12-Diethylspermine] | 37.8 | 32.23 |  | 
O=C1C(SCCO)=C(SCCO)C(=O)c2ccccc21 [NSC95397] | 15.8033 | 41.93 |  | 
COc1ccc(OC)c2c(=S)c3ccccc3[nH]c12 [NSC625987] | 161.7582 | 136.0173 |  | 
Cc1nc2c(O)cccc2c(=O)[nH]1 [NU1025] | 123.2356 | 174.885 |  | 
NS(=O)(=O)c1ccc(Nc2nc(OCC3CCCCC3)c3[nH]cnc3n2)cc1 [NU6102] | 124.8924 | 112.51 |  | 
COc1ccc(C2=N[C@@H](c3ccc(Cl)cc3)[C@@H](c3ccc(Cl)cc3)N2C(=O)N2CCNC(=O)C2)c(OC(C)C)c1 [Nutlin-3] | 25.82 | 23.89 |  | 
CCCCCCCCCCCCCCCCCCc1ccc(C(=O)/C=C/C(=O)O)cc1 [OBAA] | 110.9715 | 199.8448 |  | 
O=c1onc2cnc3ccccc3n12 [ODQ] | 84.9 | 84.47 |  | 
C=CCc1cccc(/C=N/NC(=O)CN2CCN(Cc3ccccc3)CC2)c1O [PAC-1] | 9.44 | 6.045 |  | 
COc1ccc(Cn2ccc3ccc(C(=O)NO)cc32)cc1 [PCI-34051] | 72.3 | 71.67 |  | 
O=[N+]([O-])c1ccc(-c2nc(-c3ccc(F)cc3)c(-c3ccncc3)[nH]2)cc1 [PD169316] | 151.5532 | 161.5329 |  | 
CCN(CC)CCCCNc1ncc2cc(-c3cc(OC)cc(OC)c3)c(NC(=O)NC(C)(C)C)nc2n1 [PD173074] | 7.568 | 8.446 |  | 
COc1cccc(-c2cc(=O)c3ccccc3o2)c1N [PD 98059] | 111.8217 | 168.8128 |  | 

Structure (SMILES) | Cell viability, KO [1, 3] | Cell viability, WT [2, 4] | Cell viability, KO [1] | Cell viability, WT [2]
OCCn1cc(-c2cnc3nnn(Cc4ccc5ncccc5c4)c3n2)cn1 [PF-04217903] | 93.9615 | 86.5829 |  | 
O=C(Cc1ccccc1)Nc1c2c(nc3ccccc13)N(Cc1ccccc1)CC2 [PGP-4008] | 117.1066 | 106.0362 |  | 
CN(C)CC(=O)Nc1ccc2[nH]c(=O)c3ccccc3c2c1 [PJ-34] |  |  | 15.94 | 18.28
O=C1Nc2ccc3ncsc3c2/C1=C/c1cnc[nH]1 [PKR inhibitor] |  |  | 16.84 | 8.714
CC(C)(C)n1nc(-c2cccc3ccccc23)c2c(N)ncnc21 [PP1 analog] | 69.2339 | 76.55 |  | 
CC(C)(C)n1nc(-c2ccc(Cl)cc2)c2c(N)ncnc21 [PP2] | 149.4142 | 121.2434 |  | 
CC(C)CC(=O)N[C@H](C(=O)N[C@H](C(=O)N[C@@H](CC(C)C)[C@@H](O)CC(=O)N[C@@H](C)C(=O)N[C@@H](CC(C)C)[C@@H](O)CC(=O)O)C(C)C)C(C)C [Pepstatin A] (Isovaleryl-VV[Sta]A[Sta]-OH) | 126.4531 | 115.9467 |  | 
Cc1ccc(-c2cn3c4c(sc3n2)CCCC4)cc1 [Pifithrin-a (cyclic)] | 99.94 | 91.15 |  | 
CC(C)[C@H](CO)Nc1nc(Nc2cccc(Cl)c2)c2ncn(C(C)C)c2n1 [Purvalanol A] | 33.47 | 51.32 |  | 
O=C1Nc2ccc(I)cc2/C1=C/c1cc(Br)c(O)c(Br)c1 [RAF1 kinase inhibitor I] | 164.7652 | 127.271 |  | 
O=C(NCCCCCCNC(=O)ON=C1CCCCC1)ON=C1CCCCC1 [RHC80267] | 92.22 | 82.45 |  | 
O=C1Nc2ccccc2C2(CCN(CCc3ccc(C(F)(F)F)cc3)CC2)O1 [RS 102895] | 47.58 | 37.34 |  | 
CN1C(=O)CN=C(c2ccc(Cl)cc2)c2cc(Cl)ccc21 [Ro 5-4864] | 98.27 | 92.88 |  | 
CCCCOc1cc(CC2CNC(=O)N2)ccc1OC (centres unmarked) [Ro-20-1724] | 105.8008 | 163.0432 |  | 
Nc1ncnc2c1nc(Sc1ccc(Cl)cc1)n2[C@@H]1O[C@@H]2COP(O)(=S)O[C@H]2[C@H]1O (some centres unmarked) [Rp-8-CPT-cOMPS] | 135.7084 | 110.9572 |  | 
NC1CC1c1cc(F)cc(F)c1OCc1ccccc1 (centres unmarked) [S2101 (LSD1 inhibitor II)] | 83.95 | 80.52 |  | 
Oc1ccc(-c2nc(-c3ccc(F)cc3)c(-c3ccncc3)[nH]2)cc1 [SB202190] | 191.0939 | 108.8022 |  | 
COc1nccc(-c2c(-c3ccc(F)cc3)ncn2C2CCC(O)CC2)n1 (centres unmarked) [SB239063] | 174.3691 | 118.4502 |  | 
